Measured values from paper PMC12051620, “Molecular basis underlying the specificity of an antagonist AA92593 for mammalian melanopsins” (The Journal of Biological Chemistry, 2025).

What was measured:
[1] = test system: jumping spider rhodopsin-1 WT; assay: GsX GloSensor assay with Gsα/q11; format: cell-based; settings: 16.7 μM AA92593, COS-1 cells
Text: We next tested the effect of AA92593 on jumping spider rhodopsin-1, a Gq-coupled visual opsin but not melanopsin (see Figs. 2, S2, and S3) ([41]). Similar to non-mammalian-type and invertebrate melanopsins, jumping spider rhodopsin-1 was not sensitive to AA92593 as assessed using the GsX GloSensor assay (Fig. 7L). […] The introduction of I189^ECL2W/Y207^5.42F impaired the light-dependent cAMP responses even in the absence of AA92593 (Fig. S11). Taken together, the non-melanopsin Gq-coupled opsin cannot be functionally converted to an AA92593-sensitive type by site-directed mutagenesis, in contrast to non-mammalian-type and invertebrate melanopsins. […]
For GloSensor assay, opsins, GloSensor assay sensor (coded by pGlo-22F), and NanoBiT-tagged G proteins were transiently expressed in COS-1 cells (kindly provided from Dr David Farrens, Oregon Health and Science University) using PEI as described previously ([24], [52]). […] For GFP-fluorescence microscopy, a 35-mm cell culture dish (IWAKI) was transfected with 2 μg melanopsin-GFP plasmid and 8 μg PEI in 400 μl Opti-mem and 1.2 ml D-MEM. […]

[2] = dissolution in HBSS assay solution; format: physicochemical; settings: HBSS solution pH 7.4, 0.5% DMSO
Procedure: The transfected COS-1 cells were incubated at 37 °C, 5% CO2 for 2 days, and the medium was aspirated and exchanged with 50 μl of HBSS (145 mM NaCl, 10 mM D-glucose, 5 mM KCl, 1 mM MgCl2, 1.7 mM CaCl2, 1.5 mM NaHCO3, 10 mM Hepes, pH 7.4), containing 33.3, 20, 10, 2, 0.2, 0.02, 0.002, or 0 μM AA92593, 0.5% dimetyl sulfoxide (DMSO), and 4% (vol/vol) GloSensor cAMP reagent stock solution. Under our experimental conditions, >50 μM AA92593 was not fully dissolved in the HBSS solution, and we set maximal concentration of AA92593 (Glixx Laboratories) at 33.3 μM (final concentration of 16.7 μM, see below). Then, the cells were incubated at room temperature for 1 h, and luminescence changes were monitored. After incubation of the cells with AA92593, luminescence measurement was interrupted, the plate was ejected, and the cells were added with 50 μl of HBSS containing 0.2 μM 9-cis-retinal. […] Luminescence was measured using GM-2000 or GM-3510 microplate reader (Promega). Luminescence level of each well was measured every 30 s with integration time of 0.6 to 0.9 s. To illuminate opsins, luminescence measurement was interrupted, the plate was ejected, and the plate was illuminated by white light with CN-160 LED video light (light intensity, ∼9 mW/cm^2) (NEEWER). […] After illumination, luminescence measurement was resumed. […]

COc1ccc(S(=O)(=O)N2CCCCC2)cc1C [AA92593]
sensitivity to AA92593 [1]: not sensitive
concentration at which AA92593 was not fully dissolved [2]: > 50 µM
